Results on seven molecules are retold here after patent US9475789B2, “Use of polyenylpyrrole derivatives for treating inflammation” (WELLHEAD BIOLOGICAL TECHNOLOGY CORP., priority 2014, dated 2016).

Broadly, the IC50 is the concentration that inhibits the measured activity by half.

Format in all cases: cell-based, murine
Test [1] concerns LPS-induced NO generation in RAW 264.7 macrophages. The test is described as follows: NO inhibitory assay (Griess reaction) in LPS-activated macrophages. The conditions noted are these: for EC50: Mus musculus, RAW264.7, 50% inhibition of the LPS-induced NO generation, RAW 264.7, LPS 1 μg/ml, 24 h, read-out: ED50 (the source's name); for production of NO by LPS-activated cells: RAW 264.7, LPS 1 μg/ml 24 h, Griess reaction; for background level of NO: compound alone, no LPS, RAW 264.7, data not shown. As to the method:
In (A) and (C), cells (5×10^5/ml) were incubated with polyenylpyrrole derivatives or DMSO (vehicle) for 30 min followed by stimulating with LPS (1 μg/ml) for 24 h, then NO (A), IL-6 and TNF-α (C) concentration in culture medium were assayed by Griess reaction and ELISA, respectively. In (B), cells (5×10^5/ml) were pretreated with polyenylpyrrole derivatives or DMSO for 30 min followed by stimulating with LPS (1 μg/ml) for 24 h, then the protein expression of iNOS and COX-2 were assayed by Western blot. […] RAW 264.7 cells were seeded in 24-well plates at a density of 5×10^5 cells/ml, and then incubated with or without LPS (1 μg/ml) in the absence or presence of tested samples for 24 h. The effects of the tested samples on NO production were measured indirectly by analysis of nitrite levels using the Griess reaction.
(Nitrite, measured by Griess reagent, commonly stands in for NO production.)

In the next test the test system is RAW 264.7 cells. Nature of the test: AlamarBlue assay for cell viability. The conditions noted are these: Mus musculus, RAW264.7, cytotoxicity against RAW 264.7 cells, 24 h treatment. As to the method: RAW 264.7 cells were seeded at a density of 5000 cells in 100 μl RPMI 1640 medium with 10% heat-inactivated FBS per well in 96-well flat-bottom plates and incubated for 24 h at 37° C. in a 5% CO2 incubator. Cells were incubated with tested samples for 24 h and the AlamarBlue® assay was used to determine the cytotoxicity of the test samples. The procedure was conducted following the protocol described in the manufacture's instruction (AbD Serotec Ltd).
The aim of this study is to identify non-toxic polyenylpyrrole derivatives which can be used as anti-inflammatory agents. Compounds 1a-n were evaluated for their cytotoxicities against the murine macrophages cell line RAW 264.7 after 24 h treatment.

The next test deals with ROS. Nature of the test: Intracellular ROS production, LPS-activated RAW 264.7 macrophages. The conditions noted are these: compound 1h 20 μM, NAC 10 mM, 30 min before LPS. As to the method: In (A), RAW 264.7 macrophages (5×10^5/ml) were incubated with compound 1h (20 μM), N-acetyl cysteine (NAC; 10 mM) or DMSO (vehicle) for 30 min followed by LPS (1 μg/ml) stimulating for the indicated time, then ROS levels were measured by detection of the fluorescence intensity of the fluorophore carboxyl-DCF and expressed relative to those at time zero. In (B), RAW 264.7 macrophages (5×10^5/ml) were incubated with compound 1h (20 μM) or DMSO for 30 min followed by LPS (1 μg/ml) stimulating for 0-60 min, then the phosphorylation levels of ERK1/2, JNK1/2, p38 were analyzed by Western blot. In (C), J774A.1 macrophages (5×10^5/ml) were incubated with compound 1h or DMSO for 30 min followed by LPS (1 μg/ml) stimulating for 20 min, then the phosphorylation levels of ERK1/2, JNK1/2, p38 were analyzed by Western blot.
Intracellular ROS stimulated by LPS was measured by detecting the fluorescence intensity of the 2′,7′-dichlorofluorescein diacetate (H2DCFDA) oxidized product (DCF) (Molecular Probes, Eugene, Oreg.). […] The relative fluorescence intensity of fluorophore DCF, formed by peroxide oxidation of the non-fluorescent precursor, was detected at an excitation wavelength of 485 nm and an emission wavelength of 530 nm with a microplate absorbance reader (Bio-Rad Laboratories, Inc).

The next test has as its system TNF-α. Nature of the test: TNF-α ELISA, RAW 264.7 macrophages. The conditions noted are these: for TNF-α secretion: LPS-activated RAW 264.7, LPS 1 μg/ml 24 h; for background level of TNF-α: compound alone, no LPS, data not shown. The protocol: (§1) In (A) and (C), cells (5×10^5/ml) were incubated with polyenylpyrrole derivatives or DMSO (vehicle) for 30 min followed by stimulating with LPS (1 μg/ml) for 24 h, then NO (A), IL-6 and TNF-α (C) concentration in culture medium were assayed by Griess reaction and ELISA, respectively. In (B), cells (5×10^5/ml) were pretreated with polyenylpyrrole derivatives or DMSO for 30 min followed by stimulating with LPS (1 μg/ml) for 24 h, then the protein expression of iNOS and COX-2 were assayed by Western blot.
(§2) The effects of tested samples on IL-1β, TNF-α and IL-6 production were measured by ELISA according to the manufacturer's instruction. In brief, 50 μl of biotinylated antibody reagent and 50 μl of supernatant were added to an anti-mouse IL-1β, TNF-α and IL-6 precoated stripwell plate, and incubated at room temperature for 2 h. After washing the plate three times with washing buffer, 100 μl of diluted streptavidin-HRP concentrate was added to each well and incubated at room temperature for 30 min. The washing process was repeated; then 100 μl of a premixed tetramethylbenzidine substrate solution was added to each well and developed at room temperature in the dark for 30 min. Following the addition of 100 μl of stop solution to each well to stop the reaction, the absorbance of the plate was measured by a microplate reader at 450 nm wavelength.
(In an ELISA, binding on a coated surface is turned into a signal by an enzyme label.)

The test system of a further test is IL-6. Nature of the test: IL-6 ELISA, RAW 264.7 macrophages. The settings on record: for secretion of IL-6: LPS-activated RAW 264.7, LPS 1 μg/ml 24 h; for background level of IL-6: compound alone, no LPS, data not shown. The protocol: as §2
A further test deals with iNOS. The test is described as follows: Western blot of iNOS protein in LPS-activated RAW 264.7 macrophages. The conditions noted are these: LPS-activated RAW 264.7, compared with vehicle. The protocol: as §1
(§3) Whole cell lysates were separated by SDS-PAGE and electrotransferred to a PVDF membrane. The membranes were incubated in blocking solution—5% nonfat milk in phosphate buffered saline with 0.1% Tween 20—at room temperature for 1 h. Each membrane was incubated with a specific primary antibody at room temperature for 2 h. After washing three times in PBS with 0.1% Tween 20, the membrane was incubated with an HRP-conjugated secondary antibody directed against the primary antibody. The membrane was developed by an enhanced chemiluminescence Western blot detection system.
Background: Immunoblotting shows a protein as a band on a membrane.

In another test the test system is COX-2. Nature of the test: Western blot of COX-2 protein in LPS-activated RAW 264.7 macrophages. The protocol: as §1, §3

Entries after “also recorded” stand apart in the source; their conditions may differ.

Take `COc1cc(/C=C/C=C/C=C/C=C/c2sccc2Cl)oc(=O)c1C` [Compound 1k]: the EC50 in test [1] came out at 18 ± 2 µM. Also, in the test with RAW 264.7 cells, the IC50 was > 100 µM.
Turning to `CC(=O)N[C@@H](CS)C(=O)O` [N-acetyl cysteine, reference compound], the “LPS-stimulated ROS production” value in the test with ROS is given as “reduced ROS production”.
`COc1cc(/C=C/C=C/C=C/C=C/c2ccccc2Cl)oc(=O)c1C` [Compound 1l]: the EC50 in test [1] came to 18 ± 3 µM. In addition, in the test with RAW 264.7 cells, the IC50 was > 100 µM.
In the case of `COc1cc(/C=C/C=C/C=C/C=C/c2cccc(Cl)c2)oc(=O)c1C` [Compound 1m], the EC50 in test [1] was 26 ± 3 µM. Besides, the IC50 in the test on RAW 264.7 cells was > 100 µM.
The corresponding values for `COc1cc(/C=C/C=C/C=C/C=C/c2sccc2Cl)oc(=O)c1` [Compound 1j] are 29 ± 6 µM and > 100 µM.
As to `Cc1c(O)cc(/C=C/C=C/C=C/C=C/c2[nH]ccc2Cl)oc1=O` [Compound 1i], in test [1], the EC50 stood at 16 ± 2 µM, the “production of NO by LPS-activated cells” value is on record as “decreased production; also recorded: decreased the production of NO by LPS-activated cells in a dose-dependent manner” and the “background level of NO” value is reported as “did not alter”. In addition, the IC50 with RAW 264.7 cells is > 100 µM. In addition, in the test on TNF-α, the TNF-α secretion entry was “slight reduced by compounds 1h, 1i and 1n, but not significantly”; the “background level of TNF-α” value is given as “did not alter”. For the same molecule, in the test with IL-6, the “secretion of IL-6” value is on record as “decreased production; also recorded: decreased the secretion of IL-6 by LPS-activated RAW 264.7 macrophages in a dose-dependent manner” and the “background level of IL-6” value is listed as “did not alter”. Further, the “expression of iNOS protein” value with iNOS is given as “decreased production; also recorded: reduced the expression of iNOS protein”. The COX-2 expression entry in the test on COX-2 was “did not affect”.
In the case of `COc1cc(/C=C/C=C/C=C/C=C/c2c(Cl)ccn2S(C)(=O)=O)oc(=O)c1C` [Compound 1n], in test [1], the EC50 was 17 ± 2 µM, the “production of NO by LPS-activated cells” value is given as “decreased production; also recorded: decreased the production of NO by LPS-activated cells in a dose-dependent manner” and the “background level of NO” value is “did not alter”. The IC50 in the test on RAW 264.7 cells is > 100 µM. Moreover, in the test with TNF-α, the TNF-α secretion result is “slight reduced by compounds 1h, 1i and 1n, but not significantly”; the “background level of TNF-α” value is listed as “did not alter”. Besides, in the test on IL-6, the “secretion of IL-6” value was “decreased production; also recorded: decreased the secretion of IL-6 by LPS-activated RAW 264.7 macrophages in a dose-dependent manner” and the “background level of IL-6” value is recorded as “did not alter”. Besides, the “expression of iNOS protein” value in the test with iNOS is reported as “decreased production; also recorded: reduced the expression of iNOS protein”. Further, in the test with COX-2, the COX-2 expression entry is “did not affect”.
